Assay results reported in PubChem BioAssay AID1996.
In brackets after ≈: the same amount, converted by molar mass.

Details: buffer; pH 7.4; 200.0 µM

Point of comparison: `O=C(OCc1ccccc1F)c1cnc(Cl)c(Cl)c1`, solubility kinetic 1.6 µg/mL (≈ 5.33 µM). Against it:
- Cc1ccc(C(=O)OCC(=O)N2CCOCC2)c(C)c1 — 21-fold higher, 34 µg/mL (≈ 123 µM)
- CNC(=O)Cn1nc(C)c(S(=O)(=O)N2CCOCC2)c1C — higher, > 47.5 µg/mL
- Cc1cc(C)cc(NC(=S)NC(=O)Cc2ccccc2)c1 — 3.2-fold lower, 0.5 µg/mL (≈ 1.68 µM)
- CN(C(=O)COc1ccc(Cl)cc1)C1(C)CCS(=O)(=O)C1 (stereo not drawn) — higher, > 49.8 µg/mL
- CCN(CC(=O)NCc1ccccn1)S(=O)(=O)c1ccc(OC)cc1 — higher, > 54.5 µg/mL
- CSc1ncc(C(=O)Nc2ccc(C(C)=O)cc2)c(C)n1 — higher, > 45.2 µg/mL
- CCOc1ccc(CN(C)C(=O)c2ccc3ccccc3n2)cc1 — 22-fold higher, 34.7 µg/mL (≈ 108 µM)
- O=C(NCCN1CCOCC1)c1ccc(Cl)cc1O — higher, > 42.7 µg/mL
- Cc1cccc(NC(=O)Nc2ccccn2)c1C — within 1.5-fold, 1.2 µg/mL (≈ 4.97 µM)
- COc1ccc(CCC(C)NCc2ccc(C(F)(F)F)cc2)cc1 (stereo not drawn) — 19-fold higher, 30.5 µg/mL (≈ 90.4 µM)
- Cc1cc(C)nc(NC(=S)Nc2cccc(F)c2)c1 — lower, < 0.2 µg/mL
- Cc1cccnc1NC(=O)CCc1c[nH]c2ccccc12 — higher, > 41.9 µg/mL
- Cn1c(Nc2ccc(F)cc2)nc2ccccc21 — 18-fold higher, 28 µg/mL (≈ 116 µM)
- NC1CCN(c2c(F)cc3c(=O)c(C(=O)O)cn(C4CC4)c3c2Cl)C1 (stereo not drawn) — higher, > 54.9 µg/mL
- CSc1nc(-c2ccc(C)cc2)nc(N)c1C#N — lower, < 0.1 µg/mL
- S=C(Nc1ccccc1)Nc1ccc(Br)cc1 — 3.5-fold higher, 5.6 µg/mL (≈ 18.2 µM)
- O=C(NCCc1ccccn1)c1cc2ccccc2o1 — 24-fold higher, 37.7 µg/mL (≈ 142 µM)
- Cc1ccccc1Cn1cnc2c(oc3ccccc32)c1=O — 1.8-fold lower, 0.9 µg/mL (≈ 3.1 µM)
- CCN(C(=O)COC(=O)c1ccccc1OCc1ccc(Cl)cc1)C1CCS(=O)(=O)C1 (stereo not drawn) — 16-fold higher, 25 µg/mL (≈ 53.7 µM)
- CC(Oc1ccc(C#N)cc1)C(=O)NC1CCCC1 (stereo not drawn) — higher, > 38.7 µg/mL
- CC(=O)Nc1cccc(C(=O)NCCc2ccco2)c1 — higher, > 40.8 µg/mL
- N/C(Cc1ccc([N+](=O)[O-])cc1)=N\OC(=O)C1CCCCC1 — 26-fold higher, 41.2 µg/mL (≈ 135 µM)
- CC1c2ccsc2CCN1C(=O)NC(=O)c1ccc(Cl)cc1 (stereo not drawn) — within 1.5-fold, 1.8 µg/mL (≈ 5.38 µM)
- COc1cccc(NC(=O)N2CCCC(C(=O)NC3CCCCC3C)C2)c1 (stereo not drawn) — 4-fold higher, 6.4 µg/mL (≈ 17.1 µM)
- O=C(O)c1cn2c3c(ccc(Cl)c3c1=O)OCC2 — higher, > 39.8 µg/mL
- CCCN(CC(=O)Nc1ccc(Cl)cc1Cl)C(=O)c1ccc(=O)[nH]c1 — higher, > 57.3 µg/mL
- CCOc1ccc(NC(=O)C2CC3CCC2C3)cc1 (stereo not drawn) — 3.8-fold higher, 6.1 µg/mL (≈ 23.5 µM)
- CCC(=NCCc1ccc(OC)c(OC)c1)C1=C(O)CC(C)(C)CC1=O — 30-fold higher, 47.3 µg/mL (≈ 132 µM)
- Cc1cnc(C(=O)OCC(=O)c2ccc(C)s2)cn1 — 26-fold higher, 41.1 µg/mL (≈ 149 µM)
- Cc1cc(C(=O)Nc2ccccc2C(=O)O)c(C)o1 — higher, > 38.9 µg/mL
- CCCc1ccc(OCc2ccc(C(=O)N3CCCC3)o2)cc1 — 3.7-fold higher, 5.9 µg/mL (≈ 18.8 µM)
- COc1ccc(NC(=O)CON=CC(=O)Nc2ccc(C)cc2)c(OC)c1 — 2.4-fold higher, 3.8 µg/mL (≈ 10.2 µM)
- Cc1cccc(-c2nc(C#N)c(NCC3CCCO3)o2)c1 (stereo not drawn) — within 1.5-fold, 2.3 µg/mL (≈ 8.12 µM)
- CN1CCN2c3ncccc3Cc3ccccc3[C@@H]2C1 — 19-fold higher, 30.2 µg/mL (≈ 114 µM)
- COCn1c(C(O)c2ccccc2)cc2ccccc21 (stereo not drawn) — 24-fold higher, 38.9 µg/mL (≈ 146 µM)
- Cc1cc(-c2ccccc2C(=O)NC2CCCCC2)on1 — 20-fold higher, 31.8 µg/mL (≈ 112 µM)
- COc1ccc(CN2CCN(C(=O)C3CCN(C(=O)Nc4ccccc4)CC3)CC2)cc1OC — 38-fold higher, 60.6 µg/mL (≈ 130 µM)
- CS(=O)(=O)c1ccc(C(=O)NC2CCCc3ccccc32)cc1 (stereo not drawn) — 22-fold higher, 35.2 µg/mL (≈ 107 µM)
- Cc1ccc(S(=O)(=O)Nc2ncccn2)cc1 — higher, > 37.4 µg/mL
- Oc1cccnc1Sc1cccc(C(F)(F)F)c1 — 24-fold higher, 38.2 µg/mL (≈ 141 µM)
- COCCCn1c(-c2cccs2)nc2nc3ccccc3nc21 — 8.1-fold higher, 12.9 µg/mL (≈ 39.8 µM)
- COc1ccc(S(=O)(=O)NCCNC(=O)N2CCOCC2)cc1 — higher, > 51.5 µg/mL
- Cc1onc(-c2c(Cl)cccc2Cl)c1NC(=O)N1CCSCC1 — higher, > 55.8 µg/mL
- O=C(c1cc(O)c(O)c([N+](=O)[O-])c1)c1ccccc1F — higher, > 41.6 µg/mL
- COCCN(C(=O)COC(=O)/C=C/c1cccc(C(F)(F)F)c1)c1c(N)n(CC(C)C)c(=O)[nH]c1=O — 3.6-fold higher, 5.7 µg/mL (≈ 11.1 µM)
- O=C1COc2ccc(C(=O)NC3CC3)cc2N1 — higher, > 34.8 µg/mL
- COc1ccc(OC)c(NC(=S)Nc2ccccc2)c1 — higher, > 43.3 µg/mL
